Test results: patent publication US10722523B2, “Chemoimmunotherapy for epithelial cancer” (THE REGENTS OF THE UNIVERSITY OF CALIFORNIA, priority 2015, dated 2020)

Legend:
[1] = IgA production and immune parameters in tumor-free mice; format: in vivo, mouse; settings: LD, tumor-free WT or Tgfbr2ΔB mice
Experimental: (§1) All results are means±s.e.m.
For lymphocytes isolated from spleen and lymph nodes, standard protocols using filters have been used. Lymphocytes were isolated from human blood using Ficoll-Paque PLUS (GE Healthcare Life Science) according to manufacturer's recommendations. […] Moreover, Il10 and β-actin mRNA expression were analyzed on single cell level by flow cytometry in combination with CD45, IgA and IL-10 protein staining, using FlowRNA II Assay kit (Affymetrix eBioscience) according to manufacturer's protocols^9. Cells were analyzed on a Beckman Coulter Cyan ADP flow cytometer. Data were analyzed using FlowJo software (Treestar). […]
Anti-SV40 Tag immunoglobulin ELISA was performed as previously described^33. […] After 24 hrs, the supernatants were analysed for IgA content. […]

[2] = test system: tumor-infiltrating B cells and CD8+ T cells; assay: Flow cytometry / Q-RT-PCR of tumor-infiltrating lymphocytes in TRAMP and MC tumors; format: in vivo, mouse
Experimental: For lymphocytes isolated from spleen and lymph nodes, standard protocols using filters have been used. Lymphocytes were isolated from human blood using Ficoll-Paque PLUS (GE Healthcare Life Science) according to manufacturer's recommendations. For lymphocyte isolation from tumors (mouse and human), tumors were cut into small pieces and incubated in dissociation solution (RPMI medium supplemented with 5% FBS, collagenase type I (200 U/ml), collagenase type IV (200 U/ml), and DNase I (100 μg/ml) for 30 min at 37° C. After incubation, cell suspensions were passed through a 50 μm cell strainer and washed twice. For large tumors (≥0.7 g), hematopoietic cells were pre-enriched using density gradient centrifugation (Percoll or Ficoll), and red blood cells were lysed (RBC Lysis buffer, multi-species; eBioscience). For blocking of Fc-mediated interactions, mouse cells were pre-incubated with 0.5-1 μg of purified anti-mouse CD16/CD32 (93) per 100 μl and human cells were incubated with FcR blocking reagent (Miltenyi Biotec). Isolated cells were stained with labeled antibodies in PBS with 2% FCS and 2 mM EDTA or cell staining buffer (Biolegend). Dead cells were excluded based on staining with Live/Dead fixable dye (eBioscience). For intracellular cytokine staining, cells were restimulated (Myc-Cap cell lysate, PMA/ionomycin or PMA/ionomycin/LPS, as indicated) in the presence of a protein transport inhibitor cocktail containing Brefeldin A and Monensin (eBioscience), as indicated. For CD107, a staining antibody was added to the culture during the stimulation. After 5 hrs, cells were fixed and permeabilized with BD™ Cytofix/Cytoperm reagent for cytokine staining. BD™ transcription factor buffer was used for Foxp3 and T-bet staining and BD™ Phosflow was used for p-SMAD2/3 and p-STAT staining (BD Biosciences) according to manufacturer's recommendations. After fixation/permeabilization, cells were stained with labeled antibodies of interest. Moreover, Il10 and β-actin mRNA expression were analyzed on single cell level by flow cytometry in combination with CD45, IgA and IL-10 protein staining, using FlowRNA II Assay kit (Affymetrix eBioscience) according to manufacturer's protocols^9. Cells were analyzed on a Beckman Coulter Cyan ADP flow cytometer. Data were analyzed using FlowJo software (Treestar). Immune cell analysis of tumor-free mice of different genetic backgrounds (C57BL/6 and FVB) and different genetic ablations are shown in FIG. 15a-m.
Total RNA was extracted using an RNeasy Plus kit (Qiagen). RNA was reverse transcribed using an IScript kit (Biorad). Q-RT-PCR was performed using Ssofast EvaGreen supermix (Biorad) on a Biorad CFX96 machine. Primer sequences are listed below and generally were obtained from the NIH qPrimerDepot (http://mouseprimerdepot.nci.nih.gov). The relative expression levels of target genes were measured in triplicates and normalized against the level of RPL32 expression. Fold-difference (as relative mRNA expression) was calculated by the comparative CT method (2^(Ct(RPI,32-gene or interest))).

serum IgA, IgG = assay: Serum IgA and IgG ELISA in tumor-bearing mice; format: in vivo, mouse; settings: TRAMP and MC-tumor models, oxaliplatin alone
Experimental: Anti-SV40 Tag immunoglobulin ELISA was performed as previously described^33. IgA and IgG ELISA kits were purchased from eBioscience, and used according to manufacturer's protocols. Tumoral single cell suspension has been prepared as described above in the flow cytometry section, and was washed 2-3 times with 1×PBS/2mMEDTA/2% FCS, to remove soluble IgA. Thereafter, about 3×10^6 cells/24-well were plated in either 10% FCS/DMEM or Hybridoma medium (Life Technology). After 24 hrs, the supernatants were analysed for IgA content. Media without cells were used as controls.

Myc-Cap (MC) cells = assay: Cell death and autophagy of Myc-Cap cells in vitro (Annexin V/PI, LC3A flow cytometry); format: cell-based, mouse
Source text: as §1
For adoptive T cell transfer (ATCT) CD8^+ T cells were isolated from single cell suspensions, prepared from spleens and lymph nodes as described above, using CD8α-specific microbeads and MACS-columns (both Miltenyi Biotec GmbH, Bergisch Gladbach, Germany), and 5×10^6 CD8^+ T cells were transferred intraperitoneally (i.p.; FIG. 14a-j). For adoptive B cell transfer (ABCT), B cells (B220^+/CD19^+) were isolated from single cell suspensions prepared from spleens using CD19- and B220-specific microbeads and MACS-columns, and 5×10^6 B cells were transferred i.p. (FIG. 4g-h, FIG. 12n,o). For adoptive splenocytes transfer (ACT), single cell suspensions prepared from spleens were transferred i.p., with one total spleen injected per mouse. Labelling with 5-(and 6-) carboxyfluorescein diacetate succinimidyl ester (CFSE; Molecular Probes, Eugene, Oreg.) was done according to manufacturer's protocol. 5×10^6 CD8^+ T cells or 7×10^6 B cells were transferred (equal to one spleen per mouse; FIG. 5a-i and FIG. 14k-q). For combined adoptive B and T cell transfer (FIG. 5j-1, FIG. 14r-t), T cells were isolated from WT-FVB mice immunized with a Myc-Cap cell lysate as previously described^10. […] The extent of cell death was determined by flow cytometry, showing that more than 90% of cells were positive for Annexin V and PI. The dead cells were injected subcutaneously (s.c.) into WT-FVB mice. Seven days later, T cells were isolated from single cell suspensions of spleen and LN using a Pan T cell isolation Kit (Miltenyi Biotec). B cells were isolated from spleens of naïve FVB-WT or FVB-Tgfbr2^ΔB mice using a Pan B cell isolation kit (Miltenyi Biotec). MC-tumor bearing Rag1^−/− mice received 5×10^6 T cells with or without 5×10^6 B cells (98% pure) from WT or Tgfbr2^ΔB mice. Purity was analyzed on a Beckman Coulter Cyan ADP flow cytometer and was always >98%.

Compound: O=C1[O][Pt]2([NH][C@@H]3CCCC[C@H]3[NH]2)[O]C1=O [oxaliplatin]
- IgA production and other immune parameters [1]: no effect
- IL-21 expression in tumors ([2]; MC tumors): increased IL-21 expression
- Il10 mRNA expression in tumors ([2]; MC tumors): increased Il10 mRNA expression
- STAT3 phosphorylation in tumoral B cells ([2]; MC tumors): enhanced STAT3 phosphorylation
- proportion of tumoral B cells undergoing TGFβ signaling (p-SMAD2/3, Tgfb1 mRNA) ([2]; MC tumors): increased the proportion of tumoral B cells undergoing TGFβ signaling
- abundance of tumor infiltrating CD8+ and CD4+ cells ([2]; MC tumors in Jh−/− mice, oxaliplatin versus cisplatin): increased the abundance
- induction of Nos2, Arg1, IL-12p35 and IL-12p40 ([2]; MC tumors, WT and Jh−/− mice, no differences between them): induced other immunoregulatory molecules
- induction of Fas-L and PD-L1 on tumoral B cells ([2]; TRAMP and MC tumors): induced Fas ligand (Fas-L) and PD ligand 1 (PD-L1)
- CD8+ cell recruitment into tumors ([2]; TRAMP and TRAMP, Jh−/− mice): stimulated CD8^+ cell recruitment
- abundance of LTα/β-producing B cells ([2]; TRAMP tumors): barely increased
- oxaliplatin-induced IgA+ cells expressing both PD-L1 and IL-10 ([2]; TRAMP tumors): about 40%
- amount of splenic IgA+ cells ([2]; WT mice bearing MC tumors): modestly increased
- tumoral B cells that were CD19+B220lowCD138+ plasma cells ([2]; after 3-4 cycles of oxaliplatin treatment): at least 40%
- plasma cells that expressed IgA ([2]; after 3-4 cycles, depending on the tumor model used): 40-80%
- abundance of IgA+ B cells among B220low cells ([2]; after additional cycles): ~80%
- IgA+ B cells expressing both Fas-L and PD-L1 ([2]; after oxaliplatin): about 50%
- number of tumoral B220+CD19+ B cells ([2]; after oxaliplatin cycles): greatly increased
- IgA+CD19+ plasmocytes containing both IL-10 mRNA and protein ([2]; after oxaliplatin treatment): 50%
- time at which IgA+ B cells became detectable ([2]; after the first oxaliplatin cycle): 48 h
- serum IgA (serum IgA, IgG): increased serum IgA
- serum IgG (serum IgA, IgG): little effect on serum IgG
- apoptotic cell death of MC cells (Annexin V, propidium iodide) (Myc-Cap (MC) cells; 24 hrs, both at 20 µM): induced apoptotic cell death
- stimulation of autophagy (LC3A) (Myc-Cap (MC) cells; MC cells, 24 hrs, 20 µM, compared with cisplatin): more effective in stimulating autophagy
- cells positive for Annexin V and PI (extent of cell death) (Myc-Cap (MC) cells; Myc-Cap cells, oxaliplatin 40 μM, 48 hrs, flow cytometry): more than 90%
